# Data: patent US20240180803A1, “HYALURONIC ACID-PRODUCTION PROMOTER” (NISSIN FOODS HOLDINGS CO., LTD., priority 2021, published 2024)
# Tested on: normal human dermal fibroblasts (NHDF)
# Test: Production capacity evaluation test of hyaluronic acid in cultured cells
# Assay type: cell-based
# Conditions: for production capacity of hyaluronic acid with the NC taken as 100%: NHDF, 24 hours, culture supernatant; for Amount of hyaluronic acid produced obtained by subtracting NC / Measured value (amount of hyaluronic acid in the culture supernatant): NHDF culture supernatant; for Measured value (amount of hyaluronic acid in the culture supernatant): NC 942
# Procedure: Reagents were first prepared. […] Next, preparation of cultured cells was performed. In Example, the preparation was performed with normal human dermal fibroblasts (NHDF). First, using Dulbecco's Modified Eagle Medium (DMEM, manufactured by Gibco) to which 10% heat-inactivated FBS (manufactured by Biowest) and penicillin-streptomycin (manufactured by Invitrogen) were added, NHDF was cultured under the conditions of 37° C., 5% CO2. NHDF cells were then seeded to a 24-well plate at 1.0×10^5 cells/well. Thereafter, the NHDF cells were cultured for 72 hours under the conditions mentioned above. After the cell culture, the culture supernatant was replaced with DMEM containing no FBS. […] Note that in cultured cells, the concentration is not related to an absorption rate, which is applied to oral intake. […] After the addition of the reagent or reagents, the cells were cultured for 24 hours under the conditions of 37° C., 5% CO2. The medium was recovered after culturing, and the concentration of the hyaluronic acid in the culture supernatant was measured using Hyaluronan DuoSet Kit (manufactured by R&D Systems). Note that the cell culture without reagent was set as a negative control (NC) in Example. […] Here, the cell culture without reagent was set as a negative control (NC), and the amount (ng/mL) of hyaluronic acid produced was determined by subtracting the amount of hyaluronic acid produced of the NC from the amount of hyaluronic acid produced of each compound with reagent.
SMILES,production capacity of hyaluronic acid with the NC taken as 100% (0.001 μM final concentration) [%],production capacity of hyaluronic acid with the NC taken as 100% (0.01 μM final concentration) [%],production capacity of hyaluronic acid with the NC taken as 100% (0.05 μM final concentration) [%],production capacity of hyaluronic acid with the NC taken as 100% (0.1 μM final concentration) [%],production capacity of hyaluronic acid with the NC taken as 100% (1 μM final concentration) [%],promotion capacity of hyaluronic acid production (in words) (concentrations of 0.01 mM or less and of 1 mM),Amount of hyaluronic acid produced obtained by subtracting NC (final concentration 1 mM) [ng/mL],Measured value (amount of hyaluronic acid in the culture supernatant) (final concentration 1 mM) [ng/mL],promotion of hyaluronic acid production (in words) (any concentration tested (0.001 to 1 mM)),promotion capacity of hyaluronic acid production (in words) (concentrations from 0.01 to 0.05 mM),amount of hyaluronic acid produced compared with substances having similar chemical structures (in words) (final concentration 1 mM)
"CCCCCCCCCCCCCCCCCCCC(=O)O [Arachidic acid, arachidic acid]",111,122,102,107,127,high promotion capacity of production,–,–,–,–,–
"O=c1c(-c2ccc(O)cc2)coc2cc(O)ccc12 [Daidzein, daidzein, reference compound]",–,–,–,–,–,–,0,891,–,–,–
"O=C(/C=C/c1ccc(O)cc1)c1ccc(O)cc1O [Isoliquiritigenin, isoliquiritigenin]",–,142,138,–,127,–,562.7006,1504,promotion of hyaluronic acid production was confirmed,remarkably high promotion capacity of production,the highest
"O=C1C[C@@H](c2ccc(O)cc2)Oc2cc(O)ccc21 [Liquiritigenin, liquiritigenin, reference compound]",–,–,–,–,–,–,164.725,1106,–,–,–
"O=C(O)/C=C/c1ccc(O)cc1 [trans-p-coumaric Acid, Trans-p-coumaric acid, reference compound]",–,–,–,–,–,–,275.4202,1217,–,–,–
